Laboratory results: ChEMBL document CHEMBL1909046, “DrugMatrix in vitro pharmacology data”

Columns and labels:
[1] = target: T1, Alpha-1D adrenergic receptor (Homo sapiens, UniProt P25100); type: cell membranes, HEK293, Membrane; details: hek293; further: in other assays of this panel Not Active means under 50% inhibition at 10 µM
T1 sequence (P25100 whole entry): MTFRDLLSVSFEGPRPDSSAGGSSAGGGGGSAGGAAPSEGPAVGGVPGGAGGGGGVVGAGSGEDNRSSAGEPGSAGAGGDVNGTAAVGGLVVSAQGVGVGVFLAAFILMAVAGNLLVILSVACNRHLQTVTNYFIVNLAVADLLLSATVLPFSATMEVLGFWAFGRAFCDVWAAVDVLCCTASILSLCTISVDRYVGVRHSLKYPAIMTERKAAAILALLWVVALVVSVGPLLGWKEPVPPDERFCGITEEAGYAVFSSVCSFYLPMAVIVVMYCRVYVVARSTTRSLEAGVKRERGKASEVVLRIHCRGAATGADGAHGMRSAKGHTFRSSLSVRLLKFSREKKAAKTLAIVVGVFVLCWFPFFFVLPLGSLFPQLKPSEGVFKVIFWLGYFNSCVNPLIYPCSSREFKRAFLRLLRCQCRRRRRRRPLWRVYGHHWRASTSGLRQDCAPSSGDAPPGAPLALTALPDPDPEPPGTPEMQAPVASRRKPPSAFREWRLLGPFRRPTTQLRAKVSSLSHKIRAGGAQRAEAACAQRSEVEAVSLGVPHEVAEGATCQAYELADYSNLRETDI

Cytochrome P450 2E1 = Cytochrome P450 2E1 (Homo sapiens, UniProt P05181); details: bti-tn-5b1-4; further: in other assays of this panel Not Active means under 50% inhibition at 10 µM
Sequence of Cytochrome P450 2E1 (P05181 whole entry): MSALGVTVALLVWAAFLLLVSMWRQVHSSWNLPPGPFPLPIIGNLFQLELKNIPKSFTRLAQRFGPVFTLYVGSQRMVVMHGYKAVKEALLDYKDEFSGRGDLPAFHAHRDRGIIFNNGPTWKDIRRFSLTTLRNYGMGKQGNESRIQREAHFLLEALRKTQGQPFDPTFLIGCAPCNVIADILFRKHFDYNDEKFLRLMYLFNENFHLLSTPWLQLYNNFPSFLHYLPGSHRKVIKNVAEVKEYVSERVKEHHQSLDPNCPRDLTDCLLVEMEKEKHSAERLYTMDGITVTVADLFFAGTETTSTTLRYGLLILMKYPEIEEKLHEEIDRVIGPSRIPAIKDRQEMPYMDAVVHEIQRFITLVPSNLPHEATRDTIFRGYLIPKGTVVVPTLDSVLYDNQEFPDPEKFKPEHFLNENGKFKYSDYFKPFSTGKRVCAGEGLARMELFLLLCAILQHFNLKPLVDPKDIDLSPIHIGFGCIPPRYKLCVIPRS

[2] = target: 5-hydroxytryptamine receptor 1B (Rattus norvegicus, UniProt P28564); type: cell membranes, Wistar, Cerebral cortex, Membrane; further: in other assays of this panel Not Active means under 50% inhibition at 10 µM
Sequence of 5-hydroxytryptamine receptor 1B (P28564 whole entry): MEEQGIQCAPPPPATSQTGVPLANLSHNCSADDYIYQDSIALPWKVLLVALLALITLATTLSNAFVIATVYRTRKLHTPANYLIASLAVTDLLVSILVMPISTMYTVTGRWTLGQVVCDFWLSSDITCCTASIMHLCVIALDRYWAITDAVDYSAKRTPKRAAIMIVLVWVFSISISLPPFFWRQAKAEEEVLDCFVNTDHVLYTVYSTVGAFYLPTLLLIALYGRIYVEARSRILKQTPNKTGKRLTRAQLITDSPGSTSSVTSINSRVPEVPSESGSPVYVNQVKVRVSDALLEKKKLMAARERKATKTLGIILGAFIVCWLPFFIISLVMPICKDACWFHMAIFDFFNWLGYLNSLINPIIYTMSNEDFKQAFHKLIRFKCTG

Mu-type opioid receptor = Mu-type opioid receptor (Homo sapiens, UniProt P35372); experiment: DRUGMATRIX: Opiate mu (OP3, MOP) radioligand binding (ligand: [3H] Diprenorphine); type: cell membranes, CHO-K1, Membrane; details: cho-k1; Not Active = under 50% inhibition at 10 µM
Sequence of Mu-type opioid receptor (P35372 whole entry): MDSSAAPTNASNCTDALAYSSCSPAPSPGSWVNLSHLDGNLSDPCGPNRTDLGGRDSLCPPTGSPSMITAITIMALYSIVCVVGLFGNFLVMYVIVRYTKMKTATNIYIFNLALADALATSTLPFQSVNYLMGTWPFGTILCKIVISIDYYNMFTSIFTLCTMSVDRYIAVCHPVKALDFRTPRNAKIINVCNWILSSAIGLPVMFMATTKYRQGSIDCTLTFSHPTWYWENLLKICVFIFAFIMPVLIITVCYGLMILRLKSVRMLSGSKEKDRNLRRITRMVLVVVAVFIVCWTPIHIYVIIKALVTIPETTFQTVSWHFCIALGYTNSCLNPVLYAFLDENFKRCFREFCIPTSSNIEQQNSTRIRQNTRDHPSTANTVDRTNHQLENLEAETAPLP

[3] = DRUGMATRIX: Platelet-Derived Growth Factor (PDGF) radioligand binding (ligand: [125I] PDGF); type: cell-based; details: nih3t3; Not Active = under 50% inhibition at 10 µM
[4] = DRUGMATRIX: Nicotinic Acetylcholine radioligand binding (ligand: [125I] Epibatidine); type: cell membranes, Membrane; details: imr-32; Not Active = under 50% inhibition at 10 µM
Cathepsin G = target: T2, Cathepsin G (Homo sapiens, UniProt P08311); type: tissue-based; details: neutrophil;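 further: inhibition of Cathepsin G enzyme activity, tested on an AMC-conjugated peptide substrate; in other assays of this panel Not Active means under 50% inhibition at 10 µM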
T2 sequence (P08311 whole entry): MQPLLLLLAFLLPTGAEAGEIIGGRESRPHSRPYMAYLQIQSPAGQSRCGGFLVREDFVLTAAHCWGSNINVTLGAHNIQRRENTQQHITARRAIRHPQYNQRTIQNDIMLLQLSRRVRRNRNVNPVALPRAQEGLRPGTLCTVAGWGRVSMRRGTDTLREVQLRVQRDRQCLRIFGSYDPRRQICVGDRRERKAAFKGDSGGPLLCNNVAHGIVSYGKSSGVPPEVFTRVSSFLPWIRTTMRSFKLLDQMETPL

[5] = target: T3, Vasoactive intestinal polypeptide receptor 1 (Homo sapiens, UniProt P32241); type: cell membranes, Membrane; details: ht-29; further: in other assays of this panel Not Active means under 50% inhibition at 10 µM
T3 sequence (P32241 whole entry): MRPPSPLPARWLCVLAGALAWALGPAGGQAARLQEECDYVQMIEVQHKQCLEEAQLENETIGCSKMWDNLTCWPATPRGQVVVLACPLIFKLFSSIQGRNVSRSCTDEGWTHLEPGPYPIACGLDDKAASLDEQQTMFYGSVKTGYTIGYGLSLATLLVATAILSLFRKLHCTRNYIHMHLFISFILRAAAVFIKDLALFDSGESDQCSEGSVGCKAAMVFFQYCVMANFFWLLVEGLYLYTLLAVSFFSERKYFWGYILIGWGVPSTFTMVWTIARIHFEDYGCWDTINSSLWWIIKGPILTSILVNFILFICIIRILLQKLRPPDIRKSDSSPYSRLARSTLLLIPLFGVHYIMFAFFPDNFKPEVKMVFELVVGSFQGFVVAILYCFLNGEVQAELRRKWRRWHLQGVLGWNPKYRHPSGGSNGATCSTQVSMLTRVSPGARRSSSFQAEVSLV

[6] = target: Mitogen-activated protein kinase 1 (Homo sapiens, UniProt P28482); experiment: DRUGMATRIX: Protein Serine/Threonine Kinase, ERK2 enzyme inhibition (substrate: Myelin Basic Protein); set-up: species or system Escherichia coli; details: Not Active = under 50% inhibition at 10 µM
Sequence of Mitogen-activated protein kinase 1 (P28482 whole entry): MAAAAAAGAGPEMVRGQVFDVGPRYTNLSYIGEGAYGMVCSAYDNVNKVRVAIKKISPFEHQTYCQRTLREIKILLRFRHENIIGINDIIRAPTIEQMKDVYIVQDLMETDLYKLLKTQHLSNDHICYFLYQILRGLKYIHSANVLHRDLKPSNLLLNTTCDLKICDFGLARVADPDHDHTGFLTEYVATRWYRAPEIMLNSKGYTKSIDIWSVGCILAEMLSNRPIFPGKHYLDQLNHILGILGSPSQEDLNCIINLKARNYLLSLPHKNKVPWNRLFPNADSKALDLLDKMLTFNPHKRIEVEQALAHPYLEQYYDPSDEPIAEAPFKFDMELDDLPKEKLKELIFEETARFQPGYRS

[7] = target: T4, Alpha-2C adrenergic receptor (Homo sapiens, UniProt P18825); experiment: DRUGMATRIX: Adrenergic Alpha-2C radioligand binding (ligand: [3H] MK-912); type: cell membranes, Sf9, Membrane; details: sf9
T4 sequence (P18825 whole entry): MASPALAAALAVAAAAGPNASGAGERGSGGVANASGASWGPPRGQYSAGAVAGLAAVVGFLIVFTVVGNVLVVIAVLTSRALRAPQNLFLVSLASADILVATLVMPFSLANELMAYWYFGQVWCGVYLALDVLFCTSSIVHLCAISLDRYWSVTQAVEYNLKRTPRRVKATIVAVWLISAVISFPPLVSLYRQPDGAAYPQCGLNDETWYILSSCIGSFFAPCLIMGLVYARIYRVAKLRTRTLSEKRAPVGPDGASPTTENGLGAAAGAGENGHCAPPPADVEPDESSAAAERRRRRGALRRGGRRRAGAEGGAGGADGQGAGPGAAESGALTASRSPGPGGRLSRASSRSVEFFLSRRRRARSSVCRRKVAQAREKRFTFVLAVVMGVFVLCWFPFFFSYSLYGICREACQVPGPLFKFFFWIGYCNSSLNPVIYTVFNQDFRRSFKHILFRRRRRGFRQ

[8] = DRUGMATRIX: Tumor Necrosis Factor (TNF), Non-Selective radioligand binding (ligand: [125I] TNF-alpha); type: cell membranes, Membrane; details: u-937; Not Active = under 50% inhibition at 10 µM
[9] = target: Beta-2 adrenergic receptor (Homo sapiens, UniProt P07550); experiment: DRUGMATRIX: Adrenergic beta2 radioligand binding (ligand: [3H] CGP-12177); type: cell membranes, Membrane; details: cho; Not Active = under 50% inhibition at 10 µM
Sequence of Beta-2 adrenergic receptor (P07550 whole entry): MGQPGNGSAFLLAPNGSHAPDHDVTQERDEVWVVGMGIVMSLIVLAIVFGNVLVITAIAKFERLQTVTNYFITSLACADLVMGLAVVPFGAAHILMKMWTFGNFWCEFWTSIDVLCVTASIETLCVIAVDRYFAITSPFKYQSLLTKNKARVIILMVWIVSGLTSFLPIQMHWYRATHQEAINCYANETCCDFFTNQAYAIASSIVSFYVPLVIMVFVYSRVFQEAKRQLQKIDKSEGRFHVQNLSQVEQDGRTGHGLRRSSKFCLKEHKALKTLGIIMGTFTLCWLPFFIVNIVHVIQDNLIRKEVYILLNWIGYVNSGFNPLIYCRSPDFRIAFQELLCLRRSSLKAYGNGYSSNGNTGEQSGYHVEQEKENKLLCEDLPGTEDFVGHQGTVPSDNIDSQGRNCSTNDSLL

[10] = target: Aldo-keto reductase family 1 member B1 (Rattus norvegicus, UniProt P07943); type: tissue-based, Lens of camera-type eye

CC(C)n1c(/C=C/C(O)CC(O)CC(=O)O)c(-c2ccc(F)cc2)c2ccccc21 (stereo not drawn) [FLUVASTATIN]
Not Active: IC50 [1] | IC50 (Cytochrome P450 2E1) | Ki (Cytochrome P450 2E1) | IC50 [2] | IC50 (Mu-type opioid receptor) | IC50 [3] | Ki [3] | IC50 [4] | Ki [4] | IC50 (Cathepsin G) | IC50 [5] | IC50 [6] | IC50 [7] | IC50 [8] | Ki [8] | IC50 [9] | IC50 [10]

NCC1(CC(=O)O)CCCCC1 [GABAPENTIN]
Not Active: IC50 [1] | IC50 (Cytochrome P450 2E1) | Ki (Cytochrome P450 2E1) | IC50 [2] | IC50 (Mu-type opioid receptor) | IC50 [3] | Ki [3] | IC50 [4] | Ki [4] | IC50 (Cathepsin G) | IC50 [5] | IC50 [6] | IC50 [7] | IC50 [8] | Ki [8] | IC50 [9] | IC50 [10]

CC[N+](CC)(CC)CCOc1cccc(OCC[N+](CC)(CC)CC)c1OCC[N+](CC)(CC)CC.[I-].[I-].[I-] [GALLAMINE TRIETHIODIDE]
Not Active: IC50 [1] | IC50 (Cytochrome P450 2E1) | Ki (Cytochrome P450 2E1) | IC50 [2] | IC50 (Mu-type opioid receptor) | IC50 [3] | Ki [3] | IC50 [4] | Ki [4] | IC50 (Cathepsin G) | IC50 [5] | IC50 [6] | IC50 [7] | IC50 [8] | Ki [8] | IC50 [9] | IC50 [10]

Nc1nc2c(ncn2COC(CO)CO)c(=O)[nH]1 [GANCICLOVIR]
Not Active: IC50 [1] | IC50 (Cytochrome P450 2E1) | Ki (Cytochrome P450 2E1) | IC50 [2] | IC50 (Mu-type opioid receptor) | IC50 [3] | Ki [3] | IC50 [4] | Ki [4] | IC50 (Cathepsin G) | IC50 [5] | IC50 [6] | IC50 [7] | IC50 [8] | Ki [8] | IC50 [9] | IC50 [10]
